From US20240270800A1, “ANTIMICROBIAL CaNCR PEPTIDE VARIANTS” (Donald Danforth Plant Science Center, priority 2021, published 2024)
Where a SMILES comes first, the peptide text is derived from it. Bridges are numbered along the chain shown (N, C = ends).

Tested on: Botrytis cinerea T-4
Experiment: Determination of minimum inhibitory concentration, 96-well plate spore assay with resazurin viability
Assay type: cell-based
Details: SFM supplemented with 100 mM NaCl
Protocol: The fungal strains of Botrytis cinerea T-4 were cultured on V8 growth medium. Fungal spores were harvested by flooding the fungal growth plates with sterile water. The spore suspension was filtered through two layers of Miracloth, centrifuged at 13,600 rpm for 1 min, washed, and re-suspended in low-salt Synthetic Fungal Medium (SFM) (U.S. Pat. No. 6,316,407). The spore suspension of each fungal pathogen was adjusted to equivalent spore density using a hemocytometer ([…]).
Anti-fungal activity of NCR13_WT and NCR13_V2 against B. cinerea was assessed using the 2-fold dilution series of each peptide. The antifungal activity was determined spectrophotometrically using the 96-well plate assay (Sagaram et al., 2011). The 45 μL of the peptide dilution ([…]) was added to each well of the microtiter plate containing 45 μL of (˜10^5 spores/ml) the spore suspension. The quantitative fungal growth inhibition was determined by measuring the absorbance at 595 nm using a (Tecan Infinite M200 ProTecan Systems Inc., San Jose, CA) microplate reader after 48 h. The fungal cell viability was determined using the resazurin cell viability assay (Chadha S & Kale SP, 2015; Li et al.; 2019). After incubation of the pathogen/peptide mixture for 48 h, 10 μl of 0.1% resazurin solution was added to each well and re-incubated overnight. […]

CC[C@H](C)[C@@H]1NC(=O)[C@@H]2CSSC[C@H](NC(=O)[C@@H]3CCCN3C(=O)[C@H](CCCCN)NC(=O)[C@@H](N)[C@@H](C)O)C(=O)N[C@@H](CCC(N)=O)C(=O)N[C@@H](CO)C(=O)N[C@@H](CC(=O)O)C(=O)N[C@@H](CCCCN)C(=O)N[C@@H](CC(=O)O)C(=O)N[C@H]3CSSC[C@H](NC(=O)[C@H](Cc4ccccc4)NC(=O)CNC(=O)[C@H](CC(N)=O)NC1=O)C(=O)N[C@@H](CCCCN)C(=O)N[C@H](C(=O)N[C@H](C(=O)N[C@@H](CCCNC(=N)N)C(=O)O)C(C)C)CSSC[C@H](NC(=O)[C@H](C)NC(=O)[C@H](Cc1ccccc1)NC(=O)[C@H](CCCCN)NC(=O)[C@H](CCCCN)NC3=O)C(=O)N[C@@H](CCCNC(=N)N)C(=O)N[C@@H](CCCCN)C(=O)N1CCC[C@H]1C(=O)N[C@@H](CCCCN)C(=O)N[C@@H](C(C)C)C(=O)N1CCC[C@H]1C(=O)N[C@@H](CCCCN)C(=O)N2 [CaNCR13] (H-TKPCQSDKDCKKFACRKPKVPKCINGFCKCVR-OH; disulfide 4-23, 10-28, 15-30)
MIC (SFM + 100 mM NaCl): No Activity
